The text below walks through data of patent US6900336B2, “8-aza-11-deoxy prostaglandin analogues” (Syntex (U.S.A.) LLC, priority 2001, dated 2005).

One assay concerns the target T1, EP2 Receptor (Homo sapiens, UniProt P43116).
T1 construct: host or cells: unnamed cultured cells, membrane fraction
The assay can be described thus: EP2 Ki (table under competitive [3H]PGE2 binding assay).

The next assay deals with T2, rEP1 Receptor (UniProt P70597).
T2 sequence (P70597 1-405): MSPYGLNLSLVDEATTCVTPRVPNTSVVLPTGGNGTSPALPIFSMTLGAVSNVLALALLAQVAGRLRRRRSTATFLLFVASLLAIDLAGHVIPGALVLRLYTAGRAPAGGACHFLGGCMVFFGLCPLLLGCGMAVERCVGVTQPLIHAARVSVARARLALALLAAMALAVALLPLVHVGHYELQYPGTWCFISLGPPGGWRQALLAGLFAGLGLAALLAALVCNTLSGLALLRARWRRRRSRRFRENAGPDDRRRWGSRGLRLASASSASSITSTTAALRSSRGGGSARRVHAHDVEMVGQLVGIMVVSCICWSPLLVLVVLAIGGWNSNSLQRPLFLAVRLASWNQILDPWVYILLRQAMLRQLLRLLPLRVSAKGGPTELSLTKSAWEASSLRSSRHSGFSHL
The assay can be described thus: Competitive Binding Assay of [3H]PGE2 to rEP1 Receptor. As to conditions: 3 nM [3H]PGE2, membrane fraction, 1 hr at 30° C.; read-out: EP1, Ki. The protocol:
(§1) Competitive Binding Assay of [^3H]PGE2 to rEP1 or rEP3 Receptor
(§2) The cells were maintained in culture then harvested upon confluency. The membrane was prepared by two times of centrifugation (12,000× g for 15 min) following lysis of cells by polytron homogenization of 15 sec. in 10 volume of 20 mM Hepes pH 7.4 containing 1 mM EDTA, 10 mM MgCl2, 20 uM indomethacin at 4° C. […] Incubations were conducted for 1 hr at 30° C. prior to separation of the bound and free radioligand by rapid filtration. Residual [^3H]PGE2 bound to the filter was quantitated by liquid scintillation counting. The Ki of a compound was calculated by the program of one site binding calculation of Prism.

The target in another assay is T3, EP4 Receptor (Homo sapiens, UniProt P35408).
T3 construct: host or cells: unnamed cultured cells, membrane fraction
T3 sequence (P35408 whole entry): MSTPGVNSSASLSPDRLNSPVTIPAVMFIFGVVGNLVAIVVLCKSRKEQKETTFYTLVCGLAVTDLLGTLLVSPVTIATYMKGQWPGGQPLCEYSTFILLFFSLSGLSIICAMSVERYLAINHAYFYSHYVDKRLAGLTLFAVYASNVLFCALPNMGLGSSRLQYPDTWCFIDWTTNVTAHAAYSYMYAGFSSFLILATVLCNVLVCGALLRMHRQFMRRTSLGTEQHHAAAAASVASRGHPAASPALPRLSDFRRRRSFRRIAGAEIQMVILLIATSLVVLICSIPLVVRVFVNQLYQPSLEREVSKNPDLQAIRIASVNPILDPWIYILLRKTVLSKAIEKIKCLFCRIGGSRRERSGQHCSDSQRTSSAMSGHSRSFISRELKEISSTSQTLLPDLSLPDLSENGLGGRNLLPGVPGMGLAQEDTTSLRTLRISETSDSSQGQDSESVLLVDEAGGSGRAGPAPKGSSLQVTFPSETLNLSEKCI
Briefly: EP4 Ki (table under competitive [3H]PGE2 binding assay). The protocol:
[Worded in the source for another target; this target is reported under the same test.] as §1, §2

The target in the next assay is T4, rEP3 Receptor (UniProt P34980).
T4 sequence (P34980 1-365): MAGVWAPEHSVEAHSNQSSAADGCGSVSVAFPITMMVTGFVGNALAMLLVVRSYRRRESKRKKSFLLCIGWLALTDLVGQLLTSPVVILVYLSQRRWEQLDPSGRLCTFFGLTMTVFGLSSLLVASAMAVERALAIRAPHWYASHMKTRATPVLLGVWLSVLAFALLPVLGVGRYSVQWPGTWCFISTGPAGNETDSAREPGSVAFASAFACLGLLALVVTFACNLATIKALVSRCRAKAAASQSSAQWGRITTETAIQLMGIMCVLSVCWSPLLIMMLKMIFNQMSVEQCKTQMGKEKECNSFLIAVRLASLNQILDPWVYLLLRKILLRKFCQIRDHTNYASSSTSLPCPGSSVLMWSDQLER
The assay can be described thus: Competitive Binding Assay of [3H]PGE2 to rEP3 Receptor. The note with it: 3 nM [3H]PGE2, membrane fraction, 1 hr at 30° C.; read-out: EP3, Ki. The protocol: as §1
The cells were maintained in culture then harvested upon confluency. […] Incubations were conducted for 1 hr at 30° C. prior to separation of the bound and free radioligand by rapid filtration. Residual [^3H]PGE2 bound to the filter was quantitated by liquid scintillation counting. The Ki of a compound was calculated by the program of one site binding calculation of Prism.

pKi: −log10 of the molar value.

T1 sequence (P43116 whole entry): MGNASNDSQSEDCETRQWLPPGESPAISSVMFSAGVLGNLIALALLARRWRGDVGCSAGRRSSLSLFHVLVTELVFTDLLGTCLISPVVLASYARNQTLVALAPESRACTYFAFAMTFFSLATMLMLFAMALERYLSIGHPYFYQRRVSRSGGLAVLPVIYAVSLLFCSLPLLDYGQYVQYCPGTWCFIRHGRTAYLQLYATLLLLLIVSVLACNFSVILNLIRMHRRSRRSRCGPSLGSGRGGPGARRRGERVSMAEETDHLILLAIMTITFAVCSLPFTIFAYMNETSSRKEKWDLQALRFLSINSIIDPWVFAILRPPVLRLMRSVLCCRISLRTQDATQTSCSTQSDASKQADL

What is called pKi is the Ki on a negative log10 scale, so that one unit is a factor of ten. As for `CC1(C)C[C@H](/C=C/C(O)c2ccc(C(F)(F)F)o2)N(CCCCCCC(=O)O)C1=O` (stereo partly drawn) [Compound 55, 7-{(R)-5-[(E)-3-hydroxy-3-(5-trifluoromethyl-furan-2-yl)-propenyl]-3,3-dimethyl-2-oxo-pyrrolidin-1-yl}-heptanoic acid], the negative logarithm of the Ki (pKi) at EP2 Receptor was < 4.00; on rEP1 Receptor it was < 4.00; at EP4 Receptor it was 8.15; on rEP3 Receptor, < 4.00.

As to `COCc1cccc(CC(O)/C=C/[C@H]2CC(C)(C)C(=O)N2CCCCCCC(=O)O)c1` (stereo partly drawn) [Compound 59, 7-{(R)-5-[(E)-3-Hydroxy-4-(3-methoxymethyl-phenyl)-but-1-enyl]-3,3-dimethyl-2-oxo-pyrrolidin-1-yl}-heptanoic acid], the pKi at EP2 Receptor is < 4.00; at EP4 Receptor it was 7.15; at rEP3 Receptor it was < 4.00.

On to `O=C(O)CCCCCCN1C(=O)CC[C@@H]1/C=C/C(O)c1cccc(Oc2ccc(Cl)cc2)c1` (stereo partly drawn) [Compound 74, 7-((R)-2-{(E)-3-[3-(4-chloro-phenoxy)-phenyl]-3-hydroxy-propenyl}-5-oxo-pyrrolidin-1-yl)-heptanoic acid], for which the pKi was 4.64 on EP2 Receptor, 8.00 at EP4 Receptor and 4.33 on rEP3 Receptor.

With `CCCCC[C@H](O)/C=C/[C@H]1CCC(=O)N1CCc1ccc(C(=O)O)cc1` [Compound 76, 4-{2-[(R)-2-((E)-3-Hydroxy-oct-1-enyl)-5-oxo-pyrrolidin-1-yl]-ethyl}-benzoic Acid], the negative logarithm of the Ki (pKi) at EP2 Receptor is 6.89; on EP4 Receptor, 8.92; on rEP3 Receptor, 4.96.

On to `Cc1cc(Cl)ccc1-c1cccc([C@H](O)CC[C@H]2CCC(=O)N2CCc2ccc(C(=O)O)cc2)c1` [Compound 81, 4-(2-{(S)-2-[(R)-3-(4′-Chloro-2′-methyl-biphenyl-3-yl)-3-hydroxy-propyl]-5-oxo-pyrrolidin-1-yl}-ethyl)-benzoic acid], for which the pKi at EP2 Receptor is 5.29; at EP4 Receptor, 9.03; on rEP3 Receptor, 4.27.

On to `CCCCCC(O)/C=C/[C@H]1CCC(=O)N1CCc1ccc(C(=O)O)s1` (stereo partly shown) [Compound 82], for which the pKi at EP2 Receptor is 5.43; on EP4 Receptor, 7.16; at rEP3 Receptor, < 4.00.
